Assay results: PubChem BioAssay AID1259332 (Broad Institute, 2017)
Active and inactive are the calls of the source. How the calls were made is not given here.

Assay: inhibitors of CD40 signaling, dose response, B cell lineage (AID 1259332);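 further: cells stimulated with CD40 ligand tCD40L; 0% = neutral control wells and -100% = positive control wells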
Conditions: B cell line, CD40 signaling inhibition reporter; at 0.35 µM (top of the series)

Structure (SMILES) | activity change, negative = inhibition
CCc1cnc(N2[C@H](C#N)[C@H](c3ccc(C#CCC4CCCC4)cc3)[C@@H]2CO)s1 | 4.84% (inactive)

Same assay, conditions: B cell line, CD40 signaling inhibition reporter; at 0.38 µM (top of the series)

Structure (SMILES) | activity change, negative = inhibition
O=C1C(=Cc2ccccc2[N+](=O)[O-])Cc2ccccc21 | 19.6% (inactive)

Same assay, conditions: B cell line, CD40 signaling inhibition reporter; at 1.1 µM (top of the series)

Structure (SMILES) | activity change, negative = inhibition
O=C(Nc1nc2ccccc2s1)c1ccc(OCC2CCCO2)cc1 (centres undefined) | 111% (inactive)
CCc1cnc(N2[C@H](C#N)[C@@H](c3ccccc3C3=CCCC3)[C@@H]2CO)s1 | 18.2% (inactive)
COc1ccc(S(=O)(=O)N(C)C[C@H]2Oc3ccc(NC(=O)Nc4ccc(C(F)(F)F)cc4)cc3C(=O)N([C@@H](C)CO)C[C@@H]2C)cc1 | 11.5% (inactive)
C/C=C/c1ccc(C2[C@H]3CNC[C@@H]2N3Cc2cccc(OC)c2)cc1 (some centres undefined) | 19.7% (inactive)
O=C1C(=NO)CCc2ccccc21 | 21.3% (inactive)
COc1ccc(C#Cc2ccc([C@H]3[C@@H](CO)N4CCCCN(S(=O)(=O)c5cn(C)cn5)C[C@H]34)cc2)cc1 | 15.6% (inactive)
CC(C)(C)[S@](=O)N1Cc2cc(C(=O)NCC(F)(F)F)nc(-c3cccc(-c4cccc(F)c4)c3)c2[C@@H]1CCO | 9.18% (inactive)
CO[C@@H](CN(C)S(=O)(=O)c1ccc(Cl)cc1)[C@H](C)CN(Cc1ccccc1Cl)[C@@H](C)CO | 0.243% (inactive)
C[C@@H]1CCCCO[C@@H](CN(C)S(=O)(=O)c2ccc(Cl)cc2)[C@H](C)CN([C@H](C)CO)C(=O)c2cc(NC(=O)Nc3ccc(C(F)(F)F)cc3)ccc2O1 | 1.11% (inactive)

Same assay, conditions: B cell line, CD40 signaling inhibition reporter; at 3 µM (top of the series)

Structure (SMILES) | activity change, negative = inhibition
O=C(Nc1ccccc1F)N1C[C@@H]2N[C@H](C1)C2c1ccc(/C=C/c2ccccc2)cc1 (some centres undefined) | 2.39% (inactive)

Same assay, conditions: B cell line, CD40 signaling inhibition reporter; at 3.5 µM (top of the series)

Structure (SMILES) | activity change, negative = inhibition
COc1ccc(Cl)cc1NC(=O)Nc1cc(C)nc2ccccc12 | -7.79% (inactive)
C[C@@H]1CN([C@@H](C)CO)C(=O)Cc2cc(NS(=O)(=O)c3ccccc3)ccc2O[C@H]1CN(C)Cc1ccc(Cl)c(Cl)c1 | 0.835% (inactive)
Cc1noc(C)c1NC(=O)N(C)C[C@@H]1OCCCC[C@@H](C)Oc2ccc(NC(=O)Nc3ccc(C(F)(F)F)cc3)cc2C(=O)N([C@H](C)CO)C[C@H]1C | -11.7% (inactive)
N#C[C@H]1[C@H](c2ccc(C#CC3CCCCC3)cc2)[C@H](CO)N1C(=O)Nc1ccc(F)cc1 | -7.18% (inactive)
O=S(=O)(c1cccc2cnccc12)N1CCNCC1 | -9.07% (inactive)
C[C@@H]1CCCCO[C@@H](CN(C)C(=O)C2CCCCC2)[C@@H](C)CN([C@H](C)CO)C(=O)c2cc(NS(=O)(=O)c3ccccc3)ccc2O1 | -0.82% (inactive)
N#C[C@H]1[C@H](c2ccc(C#CC3CCCCC3)cc2)[C@@H](CO)N1C(=O)Nc1ccc(F)cc1 | -2.23% (inactive)
Cc1noc(C)c1S(=O)(=O)Nc1ccc2c(c1)C(=O)N([C@H](C)CO)C[C@H](C)[C@@H](CN(C)C(=O)Nc1cccc3ccccc13)OCCCC[C@H](C)O2 | -1% (inactive)
CCCNC(=O)N1[C@H](CO)[C@H](c2ccc(/C=C/c3ccccc3)cc2)[C@@H]1C#N | 5% (inactive)
O=C1C=CC(=O)C2=C1C1c3ccccc3C2c2ccccc21 | -3.76% (inactive)
CC(C)NC(=O)N1CC(=O)N2[C@H](CO)[C@@H](c3ccc(/C=C/c4ccccc4)cc3)[C@H]2C1 | 6.58% (inactive)
CCCNC(=O)N1[C@H](CO)[C@H](c2ccc(-c3cccc(OC)c3)cc2)[C@@H]1C#N | 12% (inactive)
COc1cccc(S(=O)(=O)N(C)C[C@H]2OCc3ccccc3-c3c(n(C)c4ccccc34)C(=O)N([C@@H](C)CO)C[C@H]2C)c1 | -5.41% (inactive)
C[C@@H]1CN([C@H](C)CO)C(=O)Cc2cc(NC(=O)Cc3cn(C)c4ccccc34)ccc2O[C@H]1CN(C)Cc1ccc(C(F)(F)F)cc1 | 0.703% (inactive)
O=C(Nc1ccc(C(F)(F)F)cc1)Nc1ccc2c(c1)[C@H]1C[C@@H](CC(=O)N3CCc4ccccc4C3)O[C@@H](CO)[C@H]1O2 | -2.03% (inactive)
Cc1ccccc1-c1ccc(C2[C@@H]3CN(C(=O)Nc4cccc(F)c4)C[C@H]2N3)cc1 (some centres undefined) | 7.95% (inactive)
C[C@]12CC[C@H](O)C[C@H]1CC[C@@H]1[C@@H]2CC[C@]2(C)[C@@H](c3ccc(=O)oc3)CC[C@]12O | 1.4% (inactive)

Same assay, conditions: B cell line, CD40 signaling inhibition reporter; at 10 µM (top of the series)

Structure (SMILES) | activity change, negative = inhibition
CC(C)OC(=O)CC1C(=O)NCCN1C(=S)NC(=O)c1cccs1 (centres undefined) | 15.3% (inactive)
OC1(c2ccc(Cl)c(C(F)(F)F)c2)CCN(CCCC(c2ccc(F)cc2)c2ccc(F)cc2)CC1 | 3.82% (inactive)
O=C(CNCCO)N1N=C(c2cccs2)CC1c1cccs1 (centres undefined) | 12.3% (inactive)
CCCC(C)Sc1nc2c([nH]1)c(=S)n(C)c(=O)n2C (centres undefined) | -8.82% (inactive)
CCCCC1C(=O)NC(=S)N(C)C1=O (centres undefined) | 11.5% (inactive)
CC(=O)Nc1ccc(S(=O)(=O)c2ccc(N)cc2)cc1 | 0.776% (inactive)
Cc1cc(C)c2c(c1)SC1=NC(c3ccccc3)(C(F)(F)F)NC(=O)N12 (centres undefined) | 8.7% (inactive)
O=C(c1ccc(-c2ccc([N+](=O)[O-])cc2)o1)N1CCCC(C(F)(F)F)C1 (centres undefined) | 7.32% (inactive)
CC12CC[C@H]3[C@@H](CCC4(O)C[C@H](O)CCC34/C=N/NC(=O)Cc3ccccc3)C1(O)CCC2C1=CC(=O)OC1 (some centres undefined) | 5.75% (inactive)
COc1ccc(S(=O)(=O)Nc2ccc3c(c2)C(=O)N([C@@H](C)CO)C[C@@H](C)[C@H](CN(C)Cc2ccc(C(F)(F)F)cc2)OCCCC[C@@H](C)O3)cc1 | -0.502% (inactive)
Cc1ccc2c(c1)C(O)(CC(=O)/C=C/C=C/c1ccccc1)C(=O)N2 (centres undefined) | -5.49% (inactive)
Cc1noc(C)c1S(=O)(=O)Nc1ccc2c(c1)C(=O)N([C@@H](C)CO)C[C@H](C)[C@@H](CN(C)C(=O)Nc1cccc3ccccc13)OCCCC[C@H](C)O2 | -10.1% (inactive)
COc1ccc(NC(=O)O/N=C/c2c(C)nn(C(C)(C)C)c2C)cc1 | 13.9% (inactive)
Cc1cc(C(=O)COC(=O)c2cccn2C)c(C)n1Cc1ccco1 | -4.27% (inactive)
Cc1ccc(C2(C)NC(=O)N(CC(=O)Nc3cccnc3Cl)C2=O)cc1 (centres undefined) | -2.81% (inactive)
N=C(N)c1ccc(OCCCCCOc2ccc(C(=N)N)cc2)cc1 | -0.281% (inactive)
NS(=O)(=O)c1cc2c(cc1C(F)(F)F)NC(Cc1ccccc1)NS2(=O)=O (centres undefined) | 5.72% (inactive)
Cc1ccc(-c2nn3c(C)nnc3c3ccccc23)cc1S(=O)(=O)NCc1ccccc1 | 3.44% (inactive)

Structure (SMILES) | activity change, negative = inhibition
COC(=O)c1ccc2c(=O)[nH]c(COC(=O)c3c(-c4ccccc4)noc3C)nc2c1 | 7.81% (inactive)
C[C@@H]1CN([C@H](C)CO)C(=O)c2c(c3ccccc3n2C)-c2ccccc2CO[C@H]1CN(C)C(=O)Nc1ccccc1C(F)(F)F | -0.491% (inactive)
CCN1C(=O)C(CC(=O)Nc2ccc(OC)cc2)N(CCc2ccc(F)cc2)C1=S (centres undefined) | -3.22% (inactive)
O=C1Cc2c([nH]c3ccc(Br)cc23)-c2ccccc2N1 | 17.8% (inactive)
CC(=O)c1cc(-c2ccccc2)n(CC(=O)NCc2cccs2)c1C | -1.07% (inactive)
Cc1ccc(-c2cc(C(=O)N3CCCC(C(F)(F)F)C3)c3ccccc3n2)o1 (centres undefined) | 16.7% (inactive)
C(=Cc1c[nH]c2ccccc12)c1nccc2ccccc12 | 74.5% (inactive)
C[C@@H]1CN([C@H](C)CO)C(=O)c2c(c3ccccc3n2C)-c2ccccc2CO[C@H]1CN(C)C(=O)c1cc(Cl)cc(Cl)c1 | -4.87% (inactive)
COc1ccc2c3c(n(C)c2c1)[C@H](CO)N(C(=O)Nc1ccc(F)cc1)CC31CCN(C(=O)c2ccc3c(c2)OCO3)CC1 | 7.94% (inactive)
C=C1C(=O)OC2C=C(CO)CCC=C(CO)CC(OC(=O)C(C)C)C12 (centres undefined) | 14% (inactive)
CC(C)Cc1ccc(C(C)/C=C2/CCC(CN3CCCCC3)C2=O)cc1 (centres undefined) | -18.1% (inactive)
CC12CN3CC(C)(CN(C1)C3c1ccc3c(c1)OCO3)C2=O (centres undefined) | 6.2% (inactive)
CCc1cc2c(COC(=O)c3cc(S(=O)(=O)N4CCOCC4)ccc3F)cc(=O)oc2cc1O | 11.4% (inactive)
O=C1C(Br)=C(c2ccccc2)C(c2ccccc2)=C1c1ccccc1 | -7.86% (inactive)
CCc1cc2c(=O)c(-c3ccc4c(c3)OCCO4)coc2c(CN2CCCCC2C)c1O (centres undefined) | 1.98% (inactive)
Cc1ccc(C(CC(=O)NCc2ccco2)c2ccc(OC(C)C)cc2)cc1 (centres undefined) | 3.92% (inactive)
COc1ccc(C(=O)/C=C/C(=O)N(CC(=O)NC2CCCCC2)Cc2ccc(F)cc2)c(O)c1 | -5.51% (inactive)
